US20100251434A1, “METHOD FOR GROWING SUGARCANE” (SYNGENTA CROP PROTECTION, INC., priority 2007, published 2010)

Legend:
Conditions in all cases: for Culm Diameter / Leaf Width / Plant Height / Tillers: 42 days after planting
[1] = tested on: sugar cane Variety RB 86-7515; experiment: Greenhouse pot test, effect of formulated clothianidin on vigour; format: in vivo
Description: Greenhouse test with sugarcane buds growing in pots were conducted to study the effect of clothianidin equivalent to an application rate of 200 g ai. ha^−1 on “vigour”, evaluating tillers, plant height, leaf width and culm diameter. This trial was conducted on sugar cane Variety RB 86-7515.
1) carretel with one bud treated with clothianidin (200 g ai. ha^−1) 2) carretel with one bud treated with clothianidin (200 g ai. ha^−1)+15% v/v of polymer 3) stalk with 3 buds untreated 4) carretel with one bud untreated+15% v/v of polymer 5) carretel with one bud untreated 6) stalk with 3 buds treated with clothianidin (200 g ai. ha^−1).
Twenty 1 L pots were filled with 16 L of clay soil, 1.6 L of sand and 8 g of nitrogen, 28 g of phosphorus (P2O5) and 16 g of potassium (K2O). Six carretels of 4 cm length with one bud were planted in each pot (treatments 1, 2, 4 and 5). Two stalks with three buds were planted in each control pot (treatments 3 and 6) to simulate conventional planting. A layer of 3 cm of soil was used to cover the carretels. The carretels of treatments 1 and 2 were treated with 200 g ai.ha^−1 of clothianidin, by dipping the carretels in a slurry for 3 min. The stalks were treated simulating a furrow application at 100 L.ha^−1 of slurry. The pots were maintained with adequate moisture during the test. Evaluations of: plant height, leaf width, culm diameter and number of tillers were performed at 20, 30 and 42 days after planting.

[2] = tested on: sugar cane Variety RB 86-7515; experiment: Greenhouse pot test, effect of formulated fipronil on vigour; format: in vivo
Description: Greenhouse test with sugarcane buds growing in pots were conducted to study the effect of fipronil equivalent to an application rate of 200 g. ha^−1 on “vigour”, evaluating tillers, plant height, leaf width and culm diameter on sugar cane Variety RB 86-7515.
1) carretel with one bud treated with fipronil (200 g. ha^−1) 2) carretel with one bud treated with fipronil (200 g. ha^−1)+15% v/v of polymer 3) stalk with 3 buds untreated 4) carretel with one bud untreated 5) carretel with one bud untreated+15% v/v of polymer 6) stalk with 3 buds treated with fipronil (200 g. ha-1).
Twenty 1 L pots were filled with 16 L of clay soil, 1.6 L of sand and 8 g of nitrogen, 28 g to of phosphorus (P2O5) and 16 g of potassium (K2O). Six carretels of 4 cm length with one bud were planted in each pot (treatments 1, 2, 4 and 5). Two stalks with three buds were planted in each control pot (treatments 3 and 6) to simulate conventional planting. A layer of 3 cm of soil was used to cover the carretels. The carretels of treatments 1 and 2 were treated with 200 g ai.ha^−1 of fipronil, by dipping the carretels in the slurry for 3 min, based on the uptake capacity of carretels. The stalks were treated simulating a furrow application at 100 L.ha^−1 of slurry. Experimental design adopted was randomized complete block with four replications. The pots were maintained with adequate moisture during the test. Evaluations of: plant height, leaf width, culm diameter and number of tillers were done at 20, 30 and 42 days after planting.

[3] = tested on: sugarcane Variety RB 86-7515; experiment: Greenhouse pot test, effect of formulated thiamethoxam on vigour; format: in vivo, sugar cane
Description: This trial was conducted on Variety RB 86-7515.

[4] = tested on: sugar cane Variety RB 86 7515; experiment: Greenhouse pot test, effect of formulated imidacloprid on vigour; format: in vivo
Description: 1) carretel with one bud treated with Imidacloprid (1200 g. ha^−1) 2) carretel with one bud treated with Imidacloprid (1200 g. ha^−1)+15% v/v of polymer 3) stalk with 3 buds untreated 4) carretel with one bud untreated 5) carretel with one bud untreated+15% v/v of polymer 6) stalk with 3 buds treated with Imidacloprid (1200 g. ha^−1).
Twenty 1 L pots were filled with 16 L of clay soil, 1.6 L of sand and 8 g of nitrogen, 28 g of phosphorus (P2O5) and 16 g of potassium (K2O). Six carretels of 4 cm length with one bud were planted in each pot (treatments 1, 2, 4 and 5). Two stalks with three buds were planted in each control pot (treatments 3 and 6) to simulate conventional planting. A layer of 3 cm of soil was used to cover the carretels. The carretels of treatments 1 and 2 were treated with 1200 g ai.ha^−1 of imidacloprid, by dipping the carretels in the slurry for 3 min, based on the uptake capacity of carretels. The stalks were treated simulating a furrow application at 100 L.ha^−1 of slurry. Experimental design adopted was randomized complete block with four replications. The pots were maintained with adequate moisture during the test. Evaluations of: plant height, leaf width, culm diameter and number of tillers were done at 20, 30 and 42 days after planting.

[5] = tested on: sugar cane Variety RB 86-7515; experiment: Greenhouse pot test, effect of formulated abamectin on vigour; format: in vivo
Description: Greenhouse test with sugarcane buds growing in pots were conducted to study the effect of formulated abamectin regarding “vigour”, tillers, plant height, leaf width and culm diameter on sugar cane Variety RB 86-7515.
1) carretel with one bud treated with abamectin 2) carretel with one bud treated with abamectin+15% v/v of polymer 3) stalk with 3 buds untreated 4) carretel with one bud untreated 5) carretel with one bud untreated+15% v/v of polymer 6) stalk with 3 buds treated with abamectin.
Twenty 1 L pots were filled with 16 L of clay soil, 1.6 L of sand and 8 g of nitrogen, 28 g of phosphorus (P2O5) and 16 g of potassium (K2O). Six carretels of 4 cm length with only one bud were planted in each pot (treatments 1, 2, 4 and 5). Two stalks with three buds were planted in each control pot (treatments 3 and 6) to simulate conventional planting. A layer of 3 cm of soil was used to cover the carretels. The carretels of treatments 1, 2 were treated with 200 ml/ha of abamectin, by dipping the carretels in the slurry for 3 min, based on the uptake capacity of carretels. The stalks were treated simulating a furrow application at 100 L.ha^−1 of slurry. Experimental design adopted was randomized complete block with four replications. The pots were maintained with adequate moisture during the test. Evaluations of: plant height, leaf width, culm diameter and number of tillers were done at 20, 30 and 42 days after planting.

[6] = carretel with one bud, dipped in slurry, 200 g ai/ha (0.0 for Untreated + polymer)
[7] = stalk with 3 buds, simulated furrow application, 200 g ai/ha
[8] = carretel with one bud, dipped in slurry, 420 g ai/ha (0.0 for Untreated + Polymer)
[9] = stalk with 3 buds, simulated furrow application, 420 g ai/ha
[10] = carretel with one bud, dipped in slurry, 1200 g ai/ha (0.0 for Untreated + Polymer)
[11] = stalk with 3 buds, simulated furrow application, 1200 g ai/ha
[12] = carretel with one bud, dipped in slurry, 100 g ai/ha (0.0 for Untreated + Polymer)
[13] = stalk with 3 buds, simulated furrow application, 100 g ai/ha

## CN/C(=N\[N+](=O)[O-])NCc1cnc(Cl)s1 [Clothianidin, clothianidin]
[1]; [6]
  Culm Diameter: 8.75 mm
  Leaf Width: 17.17 mm
  Plant Height: 25.02 cm
  Tillers: 14.5 number
[1]; result in words, carretels
  number of tillers in comparison with the corresponding control (untreated, one-bud): increased number of tillers
  plant height in comparison with the corresponding control (untreated, one-bud): slight reduction in the plant height
[1]; [7]
  Culm Diameter: 11.25 mm
  Leaf Width: 21.5 mm
  Plant Height: 22.73 cm
  Tillers: 17.0 number

## N#Cc1nn(-c2c(Cl)cc(C(F)(F)F)cc2Cl)c(N)c1[S+]([O-])C(F)(F)F (stereo not drawn) [Fipronil, fipronil]
[2]; [6]
  Culm Diameter: 8.69 mm
  Leaf Width: 14.16 mm
  Plant Height: 20.62 cm
  Tillers: 17.25 number
[2]; result in words
  height of the resultant plants in comparison with the control: decreased the height of the resultant plants
  number of tillers in comparison with the control: increased the number of tillers
[2]; [7]
  Culm Diameter: 10.75 mm
  Leaf Width: 18.91 mm
  Plant Height: 22.12 cm
  Tillers: 16.5 number

## CN1COCN(Cc2cnc(Cl)s2)/C1=N\[N+](=O)[O-] [Thiamethoxam, thiamethoxam]
[3]; [8]
  Culm Diameter: 7.97 mm
  Leaf Width: 14.07 mm
  Plant Height: 23.67 cm
  Tillers: 15.5 number
[3]; result in words, carretels
  number of tillers in comparison with the corresponding controls: increased number of tillers
  plant height in comparison with the corresponding controls: reduced plant height
[3]; result in words, not apparent from the listed parameters
  increase in "quality" compared with the other treatments: increase in “quality” greater than the other treatments
[3]; [9]
  Culm Diameter: 10.17 mm
  Leaf Width: 19.5 mm
  Plant Height: 26.52 cm
  Tillers: 14.75 number

## O=[N+]([O-])NC1=NCCN1Cc1ccc(Cl)nc1 [Imidacloprid]
[4]; [10]
  Culm Diameter: 8.75 mm
  Leaf Width: 15.91 mm
  Plant Height: 24.0 cm
  Tillers: 15.25 number
[4]; result in words
  effect on vigour compared with the other active ingredients: less pronounced than with the other active ingredients
  number of tillers in comparison with the control: increase in the number of tillers
[4]; [11]
  Culm Diameter: 9.49 mm
  Leaf Width: 20.16 mm
  Plant Height: 23.49 cm
  Tillers: 12.0 number

## abamectin
[5]; [12]
  Culm Diameter: 7.67 mm
  Leaf Width: 14.58 mm
  Plant Height: 22.22 cm
  Tillers: 14 number
[5]; result in words
  number of tillers in comparison with the control: increase in the number of tillers
  plant height in comparison with the control: decrease in plant height
[5]; [13]
  Culm Diameter: 12.25 mm
  Leaf Width: 20.33 mm
  Plant Height: 22.54 cm
  Tillers: 19.5 number
